# Data reported in article PMC11936226, “Tris inhibits a GH1 β-glucosidase by a linear mixed inhibition mechanism” (PLOS One, 2025).
# Assays:
# [1] = molecular target: T1, Sfβgly (GH1 β-glucosidase) (Spodoptera frugiperda, UniProt O61594); assay: hydrolysis initial rates by purified enzyme (glucose detection); format: biochemical
# T1 construct: purified recombinant Sfβgly
# [2] = molecular target: T1, Sfβgly (GH1 β-glucosidase); assay: steady-state inhibition kinetics (Lineweaver-Burk) with NPβglc as substrate; also with cellobiose (Ki […]); format: biochemical
# T1 sequence (O61594 21-509): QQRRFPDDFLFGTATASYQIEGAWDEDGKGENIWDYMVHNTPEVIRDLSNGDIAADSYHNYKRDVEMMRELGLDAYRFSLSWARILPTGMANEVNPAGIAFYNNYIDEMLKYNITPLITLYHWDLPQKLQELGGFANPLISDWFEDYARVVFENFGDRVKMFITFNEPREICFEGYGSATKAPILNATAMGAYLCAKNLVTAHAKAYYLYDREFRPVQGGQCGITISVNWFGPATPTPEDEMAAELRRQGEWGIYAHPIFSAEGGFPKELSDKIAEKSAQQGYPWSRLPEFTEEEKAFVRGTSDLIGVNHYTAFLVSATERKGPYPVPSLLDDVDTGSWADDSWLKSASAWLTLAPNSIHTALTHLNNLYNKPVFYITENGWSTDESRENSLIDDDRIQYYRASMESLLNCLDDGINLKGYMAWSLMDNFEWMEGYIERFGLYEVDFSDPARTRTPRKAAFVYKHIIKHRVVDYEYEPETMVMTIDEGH
Structure (SMILES),hydrolysis initial rates by purified enzyme (glucose detection) [1],Ki [2] [mM]
"OC[C@H]1O[C@@H](O[C@H]2[C@H](O)[C@@H](O)C(O)O[C@@H]2CO)[C@H](O)[C@@H](O)[C@@H]1O (some centres unmarked) [C2, cellobiose]","The same experiment was repeated using C2, a natural substrate of Sfβgly, and two independent enzyme samples.",–
"NC(CO)(CO)CO [Tris, 2-amino-2-(hydroxymethyl)-1,3-propanediol]",–,12 ± 2
